Key:
[1] = system: HLF; assay: Proline hydroxylation (LC-MC of extracted proteins) and hydroxyproline content in HLF; assay type: cell-based, human
Method: (§1) FIG. 19A-19E. […] C. […] Actin was run as the loading control. […] All assays were performed in triplicate.

[2] = system: human lung fibroblasts; assay: Fibroblast proliferation by total protein content of fibroblast cell lysates; assay type: cell-based; details: +RXD+TGF-β; control 0.800, +TGF-β 1.138
Method: (§2) Human lung fibroblasts were exposed to TGF-β (10 ng/ml) or co-cultured with EXO([…]), and supernatants were collected for measurement of newly secreted collagen. […] Cell lysates were used to quantify total protein/well for normalization. Data are means±SEM of three separate experiments (n=3), each point run in triplicate. *P<0.05, ***P<0.001, ***P<0.0001.

[3] = system: human lung fibroblasts; assay: Collagen secretion by human lung fibroblasts (newly secreted collagen in supernatant, Sircol); assay type: cell-based; details: for collagen secretion: RXD, normalized for total protein
Method: as §2, §1
(FIG. 3A). All values presented are normalized for total protein.

[4] = system: c-P4H tetramer; assay: Non-denaturing Western blot of human lung fibroblast homogenates probed for c-P4H α-subunit; assay type: cell-based; details: RXD 10 mg/ml; alone, +EXO, +TGF-β
Method: FIG. 4. […] Western blotting on a gradient gel was performed on human lung fibroblast homogenates in non-denaturing conditions and probed with anti-α-subunit monomer (60 kD). Tetramer is found at 240 kD at arrow.

[5] = system: UUO kidney; assay: Unilateral ureteral obstruction (UUO) model of renal fibrosis, Masson's trichrome collagen staining; assay type: in vivo, Mice C57BL/6J
Method: All animal treatments and experiments were approved by the Institutional Animal Care and Use Committee of Weill Cornell Medical College. Mice were anesthetized intraperitoneally with a cocktail of ketamine (90 mg/kg) and xylazine (4 mg/kg). Mice C57BL/6J) underwent right unilateral ureteral ligation with 4-0 silk suture through an abdominal midline incision under sterile conditions. Sham-operated control (CON) animals underwent identical operations, however, with manipulation of the right ureter only. Delivery of Roxadustat (10 mg/kg) on days 0, 2, 4, 6, 8, was administered IP. Mice were sacrificed on Day 14.
Kidneys were harvested and fixed in 10% neutral buffered formalin followed by embedding in paraffin. Sections (5 um) were collected and Masson's trichrome staining was performed using a kit (Richard-Allen Scientific) to detect collagen (blue stain). Slides of paraffinized tissue sections were deparaffinized, rehydrated, and washed in distilled water. Sections were subsequently stained using components from the trichrome kit and according to the manufacturer's protocol. After dehydrating and clearing in xylene, the sections were mounted with coverslips in Vectamount (Vector Laboratories). Tissue sections were examined with an inverted epifluorescence microscope (Nikon Eclipse TE 2000-U) interfaced to a SPOT Insight 2 megapixel color camera (Diagnostic Instruments).

[6] = system: mast cells (human mastocytoma cells); assay: Mast cell degranulation after high oxygen and recovery in room air (β-hexosaminadase, tryptase release); assay type: cell-based; details: 72 h; 1 day high oxygen then 2 days room air (HO^rec) +RXD 10 mg/ml
Method: FIG. 5A-5C. […] C. […] NS=not significant
Mast cell degranulation was assessed by measuring the release of β-hexosaminadase (β-hex), a classic indicator of mast cell degranulation (FIG. 5A) and Tryptase (FIG. 5B). […] This protocol was designed to mimic the clinical protocol of giving IPF patients hospitalized with acute exacerbations high oxygen then followed by return to room air.

[7] = system: smooth muscle actin (SMA); assay: Western blot of smooth muscle actin (SMA) in lung fibroblasts; assay type: cell-based, human; details: Western blotting
[8] = system: human lung fibroblasts; assay: Fibroblast migration/accumulation/foci formation in transwell plates; assay type: cell-based; details: qualitative; +TGF-β (10 ng/ml) +RXD (10 mg/ml)
[9] = system: bleomycin-induced pulmonary fibrosis; assay: Bleomycin experimental mouse model of pulmonary fibrosis; assay type: in vivo, mice (C57BL/6J)
Source text: FIG. 11A-11B. In Vivo Murine Model of pulmonary fibrosis. […] Representative micrographs of Masson's trichrome-stained lungs from bleomycin-treated mice from the 14d time point. […] FIG. 12. […] Sal=Saline vehicle. FIG. 20A-20E. […] NS=not significant. N=5 mice/group. Scale bar=250 μm. […] Mice were sacrificed on day 21.

[10] = system: C-P4H; assay: C-P4H abundance in stimulated human fibroblasts (immunofluorescence, Western blot); assay type: cell-based; details: for C-P4H immunofluorescence intensity: human fibroblasts exposed to TGF-β or mast cell exosomes
Method: FIG. 9. Roxadustat inhibits the increase in C-[…] in stimulated human fibroblasts. Immunoexpression of prolyl-4-hydroxylase […]). […] FIG. 19A-19E. […] C. […] Actin was run as the loading control. […] All assays were performed in triplicate.

Cc1nc(C(=O)NCC(=O)O)c(O)c2ccc(Oc3ccccc3)cc12 [RXD]
proline hydroxylation in collagens 1 and 3 ([1]; LC-MC analysis of HLF extracted proteins): prevented proline hydroxylation
hydroxyproline in HLFs ([1]; TGF-β-induced increase): inhibited the TGF-β-induced increase in hydroxyproline
total protein content of fibroblast cell lysates (fibroblast proliferation) [2]: 0.828 μg/ml/well
secreted collagen (Sircol) ([3]; FIG. 19E, HLF untreated and treated with +MC-EXO and +TGF-β): blocked
collagen secretion ([3]; fibroblasts co-cultured with mast cell exosomes (40 g/ml)): inhibits collagen secretion
collagen secretion ([3]; fibroblasts exposed to exogenous TGF-β1 (10 ng/ml)): inhibits collagen secretion
collagen secretion ([3]; untreated fibroblasts): inhibits collagen secretion
α-subunit monomer abundance (60 kD band) [4]: increased the α-subunit monomer abundance in all cases
renal fibrosis, collagen staining of UUO kidney cortex and medulla ([5]; Roxadustat 10 mg/kg IP days 0, 2, 4, 6, 8, Day 14): lessened the fibrosis
quantified collagen (blue) staining, UUO kidney cortex and medulla ([5]; pixel by pixel, P<0.0001 UUO vs UUO+RXD in cortex and in medulla): Reduces Fibrosis
quantified collagen staining, control cortex and medulla with and without RXD ([5]; sham control kidneys): no significant difference
mast cell degranulation (β-hexosaminadase and mast cell tryptase in supernatants) [6]: decreases mast cell degranulation
SMA abundance [7]: decreased
fibroblast migration, accumulation, and foci formation [8]: prevents fibroblast migration, accumulation, and foci formation
severity of fibrosis, Masson's trichrome stained lungs ([9]; RXD 10 mg/kg days 7-19 every other day, sacrifice day 21): lessened the severity of fibrosis
lung hydroxyproline content ([9]; RXD 10 mg/kg days 7-19 every other day, sacrifice day 21, P<0.01 Bleo versus Bleo+RXD): significantly decreased
number of mast cells in vivo in pulmonary fibrosis ([9]; bleo vs bleo+RXD, P<0.05): reduced
lung compliance (pulmonary function tests) ([9]; bleomycin-induced decrease): normalizes the bleomycin-induced decrease in lung compliance
pulmonary fibrosis, Masson's trichrome-stained lungs ([9]; bleomycin-treated mice, 14d time point): reduced
C-P4H abundance in Western blots ([10]; HLF lysates +MC-EXO and +TGFβ, actin loading control): decreased C-P4H abundance
C-P4H immunofluorescence intensity [10]: inhibited the increase in C-P4H fluorescence intensity
C-P4H immunofluorescence intensity ([10]; listed as Roxadustat): inhibits the increase in C-P4H

— patent US20260158021A1, “PREVENTION AND TREATMENT OF ORGAN FIBROSIS” (CORNELL UNIVERSITY, priority 2018, published 2026)
